In general, Kd refers to the free concentration of one partner at which half of the binding sites on the other are occupied at equilibrium, for simple one-to-one binding.

One compound from publication PMC6149819, “Domain IV of Annexin A5 Is Critical for Binding Calcium and Guarantees Its Maximum Binding to the Phosphatidylserine Membrane” (Molecules : A Journal of Synthetic Chemistry and Natural …, 2017) can be followed below.

For experiment [1], the target named is T1, ctA5 (C-terminal truncated anxA5, lacking domain IV) (Homo sapiens, UniProt P08758, DEL255-320).
T1 construct: domain IV (last 66 residues) deleted; reverse primer ends at AYLAET; non-fusion protein released by SspDnaB intein self-cleavage, His6-CBD-intein removed; E. coli BL21(DE3); initiator Met absent
T1 sequence (P08758 2-254): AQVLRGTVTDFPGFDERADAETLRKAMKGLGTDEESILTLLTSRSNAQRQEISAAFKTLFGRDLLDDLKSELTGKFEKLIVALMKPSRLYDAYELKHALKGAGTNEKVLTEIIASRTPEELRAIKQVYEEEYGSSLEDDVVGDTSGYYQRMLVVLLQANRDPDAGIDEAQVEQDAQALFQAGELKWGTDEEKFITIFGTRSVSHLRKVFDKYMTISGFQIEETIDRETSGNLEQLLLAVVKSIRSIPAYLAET
Put plainly: isothermal titration calorimetry, one-site model. It counts as binding. An excerpt:
isothermal titration calorimetry, one-site model on ctA5 (C-terminal truncated anxA5, lacking domain IV)
A general note: Isothermal titration calorimetry measures the heat released or taken up as one component is titrated into another.

Another experiment deals with T2, wtA5 (wild-type anxA5) (Homo sapiens, UniProt P08758).
T2 construct: non-fusion protein released by SspDnaB intein self-cleavage, His6-CBD-intein removed; E. coli BL21(DE3); forward primer encodes AQVLRG directly after the intein (initiator Met absent)
T2 sequence (P08758 2-320): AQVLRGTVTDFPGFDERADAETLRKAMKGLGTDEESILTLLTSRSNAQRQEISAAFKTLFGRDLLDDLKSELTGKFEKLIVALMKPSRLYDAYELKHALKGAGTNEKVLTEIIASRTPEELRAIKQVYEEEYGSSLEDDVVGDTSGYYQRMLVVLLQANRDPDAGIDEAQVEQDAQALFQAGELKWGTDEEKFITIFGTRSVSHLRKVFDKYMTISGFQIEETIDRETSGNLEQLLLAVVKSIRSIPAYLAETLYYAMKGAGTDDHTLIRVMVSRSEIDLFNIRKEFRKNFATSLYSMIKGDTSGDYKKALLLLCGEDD
Put plainly: isothermal titration calorimetry, one-site model. It is filed as binding. An excerpt:
isothermal titration calorimetry, one-site model on wtA5 (wild-type anxA5)

For the compound `CCCCCCCC/C=C\CCCCCCCC(=O)O[C@H](COC(=O)CCCCCCCCCCCCCCC)COP(=O)(O)OC[C@H](N)C(=O)O` [POPS], the Kd in experiment [1] was 158 ± 15.4 µM; on wtA5 (wild-type anxA5), 55.9 ± 6.8 µM.
